Among the data in US9486506B2 (Novo Nordisk A/S, priority 2011, dated 2016) are EC50 values, retold here.

Numbered stars: 1 amine (or outer) side, 2 acyl side, 3 side chain; on linkers, the order of the positions; unused ones are H or OH. Side chains are listed from the residue outwards. Peptide text beside a SMILES is read from it. * marks the point of attachment. C18 diacid = O=C(O)CCCCCCCCCCCCCCCCC(=O)*; C16 diacid = O=C(O)CCCCCCCCCCCCCCC(=O)*; γGlu = O=C(O)[C@H](CCC(=O)[*:2])N[*:1]; AEEA = NCCOCCOCC(=O)O

The target in this experiment is T1, glucagon receptor (Homo sapiens, UniProt P47871).
T1 construct: expressed in transfected cells
T1 sequence (P47871 26-477): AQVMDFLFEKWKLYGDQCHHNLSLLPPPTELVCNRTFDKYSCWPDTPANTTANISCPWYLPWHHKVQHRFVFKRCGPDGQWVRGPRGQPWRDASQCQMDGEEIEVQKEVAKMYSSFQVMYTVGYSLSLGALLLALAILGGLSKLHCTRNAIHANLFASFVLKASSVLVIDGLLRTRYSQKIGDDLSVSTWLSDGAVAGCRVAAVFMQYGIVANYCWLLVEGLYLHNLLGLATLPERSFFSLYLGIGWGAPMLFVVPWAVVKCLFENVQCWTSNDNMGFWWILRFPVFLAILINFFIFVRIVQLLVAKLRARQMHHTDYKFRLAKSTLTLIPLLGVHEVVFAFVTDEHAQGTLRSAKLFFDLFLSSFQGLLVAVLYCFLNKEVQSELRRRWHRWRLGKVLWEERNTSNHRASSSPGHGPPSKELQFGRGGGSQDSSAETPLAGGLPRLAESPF
Briefly: Assay (I) Glucagon activity (cAMP biosensor, FLIPR). In kind it is cell-based. Here is the method:
The cells (14000 per well) were incubated (37° C., 5% CO2) overnight in 384-well plates. Next day the cells were loaded with a calcium responsive dye that only distributed into the cytoplasm. Probenecid, an inhibitor of the organic anion transporter, was added to prevent the dye from leaving the cell. A PDE inhibitor was added to prevent formatted cAMP from being degraded. The plates were placed into a […] and the glucagon analogues were added. End point data were collected after 6 minutes. An increase in intracellular cAMP was proportional to an increased in calcium concentrations in the cytoplasm. When calcium was bound the dry a fluorescence signal was generated. EC50-values were calculated in Prism5.

The term EC50 denotes the midpoint of the concentration-response curve.

`CC(C)C[C@H](NC(=O)[C@H](Cc1c[nH]c2ccccc12)NC(=O)[C@H](CCCCNC(=O)CC[C@H](NC(=O)CC[C@H](NC(=O)COCCOCCNC(=O)COCCOCCNC(=O)CC[C@H](NC(=O)CCCCCCCCCCCCCCCCC(=O)O)C(=O)O)C(=O)O)C(=O)O)NC(=O)[C@@H](NC(=O)[C@H](Cc1ccccc1)NC(=O)[C@H](CCC(=O)O)NC(=O)[C@H](CCC(N)=O)NC(=O)[C@H](C)NC(=O)[C@H](CCCNC(=N)N)NC(=O)[C@H](CCCNC(=N)N)NC(=O)[C@@H](NC(=O)[C@H](CC(=O)O)NC(=O)[C@H](CC(C)C)NC(=O)[C@H](Cc1ccc(O)cc1)NC(=O)[C@H](CCCCN)NC(=O)[C@H](CO)NC(=O)[C@H](Cc1ccc(O)cc1)NC(=O)[C@H](CC(=O)O)NC(=O)[C@H](CO)NC(=O)[C@@H](NC(=O)[C@H](Cc1ccccc1)NC(=O)[C@@H](NC(=O)CNC(=O)[C@H](CCC(N)=O)NC(=O)[C@H](CO)NC(=O)[C@@H](N)Cc1c[nH]cn1)[C@@H](C)O)[C@@H](C)O)[C@@H](C)O)C(C)C)C(=O)N[C@@H](CC(C)C)C(=O)N[C@@H](CO)C(=O)N[C@H](C(=O)O)[C@@H](C)O` [Example 31, N^ε24-[(4S)-4-carboxy-4-[[(4S)-4-carboxy-4-[[2-[2-[2-[[2-[2-[2-[[(4S)-4-carboxy-4-(17-carboxyheptadecanoylamino)butanoyl]amino]ethoxy]ethoxy]acetyl]amino]ethoxy]ethoxy]acetyl]amino]butanoyl]amino]butanoyl]-[Thr16,Glu21,Lys24,Leu27,Ser28]-Glucagon] (H-HSQGTFTSDYSKYLDTRRAQEFVK([γGlu-γGlu-AEEA-AEEA-γGlu-C18 diacid])WLLST-OH) yielded a 50% effective concentration (EC50) of 0.072 nM.
Then `CC(C)C[C@H](NC(=O)[C@H](Cc1ccc(O)cc1)NC(=O)[C@H](CCCNC(=N)N)NC(=O)[C@H](CO)NC(=O)[C@@H](NC(=O)[C@H](CC(=O)O)NC(=O)[C@H](CO)NC(=O)[C@@H](NC(=O)[C@H](Cc1ccccc1)NC(=O)[C@@H](NC(=O)CNC(=O)[C@H](CCC(N)=O)NC(=O)[C@H](CO)NC(=O)[C@@H](N)Cc1c[nH]cn1)[C@@H](C)O)[C@@H](C)O)C(C)C)C(=O)N[C@@H](CCC(=O)O)C(=O)N[C@@H](CO)C(=O)N[C@@H](CCCNC(=N)N)C(=O)N[C@@H](CCCNC(=N)N)C(=O)N[C@@H](C)C(=O)N[C@@H](CCC(N)=O)C(=O)N[C@@H](CCC(=O)O)C(=O)N[C@@H](Cc1ccccc1)C(=O)N[C@H](C(=O)N[C@@H](CCCCNC(=O)CC[C@H](NC(=O)CC[C@H](NC(=O)COCCOCCNC(=O)COCCOCCNC(=O)CC[C@H](NC(=O)CCCCCCCCCCCCCCCCC(=O)O)C(=O)O)C(=O)O)C(=O)O)C(=O)N[C@@H](Cc1c[nH]c2ccccc12)C(=O)N[C@@H](CC(C)C)C(=O)N[C@@H](CCC(=O)O)C(=O)N[C@@H](CO)C(=O)N[C@H](C(=O)O)[C@@H](C)O)C(C)C` [Example 54, N^ε24-[(4S)-4-carboxy-4-[[(4S)-4-carboxy-4-[[2-[2-[2-[[2-[2-[2-[[(4S)-4-carboxy-4-(17-carboxyheptadecanoylamino)butanoyl]amino]ethoxy]ethoxy]acetyl]amino]ethoxy]ethoxy]acetyl]amino]butanoyl]amino]butanoyl]-[Val10,Arg12,Glu15,Glu21,Lys24,Glu27,Ser28]-Glucagon] (H-HSQGTFTSDVSRYLESRRAQEFVK([γGlu-γGlu-AEEA-AEEA-γGlu-C18 diacid])WLEST-OH), with 1.63 nM; and `CC[C@H](C)[C@H](NC(=O)[C@H](CC(N)=O)NC(=O)[C@H](CC(C)C)NC(=O)[C@H](CC(C)C)NC(=O)[C@H](Cc1c[nH]c2ccccc12)NC(=O)[C@H](CCCCNC(=O)CC[C@H](NC(=O)COCCOCCNC(=O)COCCOCCNC(=O)CC[C@H](NC(=O)CCCCCCCCCCCCCCCCC(=O)O)C(=O)O)C(=O)O)NC(=O)[C@@H](NC(=O)[C@H](Cc1ccccc1)NC(=O)[C@H](CC(=O)O)NC(=O)[C@H](CCC(N)=O)NC(=O)[C@H](C)NC(=O)[C@H](CCCNC(=N)N)NC(=O)[C@H](CCCNC(=N)N)NC(=O)[C@H](CO)NC(=O)[C@H](CCC(=O)O)NC(=O)[C@H](CC(C)C)NC(=O)[C@H](Cc1ccc(O)cc1)NC(=O)[C@H](CCCCN)NC(=O)[C@H](CO)NC(=O)[C@H](Cc1ccc(O)cc1)NC(=O)[C@H](CC(=O)O)NC(=O)[C@H](CO)NC(=O)[C@@H](NC(=O)[C@H](Cc1ccccc1)NC(=O)[C@@H](NC(=O)CNC(=O)[C@H](CCC(N)=O)NC(=O)[C@H](CO)NC(=O)[C@@H](N)Cc1c[nH]cn1)[C@@H](C)O)[C@@H](C)O)C(C)C)C(=O)O` [Example 32, N^ε24-[(4S)-4-carboxy-4-[[2-[2-[2-[[2-[2-[2-[[(4S)-4-carboxy-4-(17-carboxyheptadecanoylamino)butanoyl]amino]ethoxy]ethoxy]acetyl]amino]ethoxy]ethoxy]acetyl]amino]butanoyl]-[Glu15,Lys24,Leu27,Ile29]-Glucagon], with 1.12 nM; and `CC(C)C[C@H](NC(=O)[C@H](Cc1ccc(O)cc1)NC(=O)[C@H](CCCNC(=N)N)NC(=O)[C@H](CO)NC(=O)[C@H](Cc1ccc(O)cc1)NC(=O)[C@H](CC(=O)O)NC(=O)[C@H](CO)NC(=O)[C@@H](NC(=O)[C@H](Cc1ccccc1)NC(=O)[C@@H](NC(=O)CNC(=O)[C@H](CCC(N)=O)NC(=O)[C@H](CO)NC(=O)[C@@H](N)Cc1c[nH]cn1)[C@@H](C)O)[C@@H](C)O)C(=O)N[C@@H](CC(=O)O)C(=O)N[C@@H](C)C(=O)N[C@@H](CCCNC(=N)N)C(=O)N[C@@H](CCCNC(=N)N)C(=O)N[C@@H](C)C(=O)N[C@@H](CCC(N)=O)C(=O)N[C@@H](CC(=O)O)C(=O)N[C@@H](Cc1ccccc1)C(=O)N[C@H](C(=O)N[C@@H](CCCCNC(=O)CC[C@H](NC(=O)CC[C@H](NC(=O)CC[C@H](NC(=O)CC[C@H](NC(=O)CCCCCCCCCCCCCCC(=O)O)C(=O)O)C(=O)O)C(=O)O)C(=O)O)C(=O)N[C@@H](Cc1c[nH]c2ccccc12)C(=O)N[C@@H](CC(C)C)C(=O)N[C@@H](CC(C)C)C(=O)N[C@@H](CO)C(=O)N[C@H](C(=O)O)[C@@H](C)O)C(C)C` [Example 73, N^ε24-[(4S)-4-carboxy-4-[[(4S)-4-carboxy-4-[[(4S)-4-carboxy-4-[[(4S)-4-carboxy-4-(15-carboxypentadecanoylamino)butanoyl]amino]butanoyl]amino]butanoyl]amino]butanoyl]-[Arg12,Ala16,Lys24,Leu27,Ser28]-Glucagon] (H-HSQGTFTSDYSRYLDARRAQDFVK([γGlu-γGlu-γGlu-γGlu-C16 diacid])WLLST-OH), with 0.106 nM.
Then `CC(C)C[C@H](NC(=O)[C@H](Cc1c[nH]c2ccccc12)NC(=O)[C@H](CCCCNC(=O)CC[C@H](NC(=O)CC[C@H](NC(=O)COCCOCCNC(=O)COCCOCCNC(=O)CC[C@H](NC(=O)CCCCCCCCCCCCCCCCC(=O)O)C(=O)O)C(=O)O)C(=O)O)NC(=O)[C@@H](NC(=O)[C@H](Cc1ccccc1)NC(=O)[C@H](CC(=O)O)NC(=O)[C@H](CCC(N)=O)NC(=O)[C@H](C)NC(=O)[C@H](CCCNC(=N)N)NC(=O)[C@H](CCCNC(=N)N)NC(=O)[C@@H](NC(=O)[C@H](CC(=O)O)NC(=O)[C@H](CC(C)C)NC(=O)[C@H](Cc1ccc(O)cc1)NC(=O)[C@H](CCCCN)NC(=O)[C@H](CO)NC(=O)[C@H](Cc1ccc(O)cc1)NC(=O)[C@H](CC(=O)O)NC(=O)[C@H](CO)NC(=O)[C@@H](NC(=O)[C@H](Cc1ccccc1)NC(=O)[C@@H](NC(=O)CNC(=O)[C@H](CCC(N)=O)NC(=O)[C@H](CO)NC(=O)[C@@H](N)Cc1c[nH]cn1)[C@@H](C)O)[C@@H](C)O)C(C)C)C(C)C)C(=O)N[C@@H](CC(C)C)C(=O)N[C@@H](CC(N)=O)C(=O)N[C@H](C(=O)O)[C@@H](C)O` [Example 7, N^ε24-[(4S)-4-carboxy-4-[[(4S)-4-carboxy-4-[[2-[2-[2-[[2-[2-[2-[[(4S)-4-carboxy-4-(17-carboxyheptadecanoylamino)butanoyl]amino]ethoxy]ethoxy]acetyl]amino]ethoxy]ethoxy]acetyl]amino]butanoyl]amino]butanoyl]-[Val^16,Lys^24,Leu^27]-Glucagon], with 0.081 nM; and `CC(C)C[C@H](NC(=O)[C@H](CC(N)=O)NC(=O)[C@H](CC(C)C)NC(=O)[C@H](CC(C)C)NC(=O)[C@H](Cc1c[nH]c2ccccc12)NC(=O)[C@H](CCCCNC(=O)CC[C@H](NC(=O)COCCOCCNC(=O)COCCOCCNC(=O)CC[C@H](NC(=O)CCCCCCCCCCCCCCCCC(=O)O)C(=O)O)C(=O)O)NC(=O)[C@@H](NC(=O)[C@H](Cc1ccccc1)NC(=O)[C@H](CC(=O)O)NC(=O)[C@H](CCC(N)=O)NC(=O)[C@H](C)NC(=O)[C@H](CCCNC(=N)N)NC(=O)[C@H](CCCNC(=N)N)NC(=O)[C@H](CO)NC(=O)[C@H](CCC(=O)O)NC(=O)[C@H](CC(C)C)NC(=O)[C@H](Cc1ccc(O)cc1)NC(=O)[C@H](CCCCN)NC(=O)[C@H](CO)NC(=O)[C@H](Cc1ccc(O)cc1)NC(=O)[C@H](CC(=O)O)NC(=O)[C@H](CO)NC(=O)[C@@H](NC(=O)[C@H](Cc1ccccc1)NC(=O)[C@@H](NC(=O)CNC(=O)[C@H](CCC(N)=O)NC(=O)[C@H](CO)NC(=O)[C@@H](N)Cc1c[nH]cn1)[C@@H](C)O)[C@@H](C)O)C(C)C)C(=O)O` [Example 34, N^ε24-[(4S)-4-carboxy-4-[[2-[2-[2-[[2-[2-[2-[[(4S)-4-carboxy-4-(17-carboxyheptadecanoylamino)butanoyl]amino]ethoxy]ethoxy]acetyl]amino]ethoxy]ethoxy]acetyl]amino]butanoyl]-[Glu15,Lys24,Leu27,Leu29]-Glucagon], with 1.9 nM.
